Laboratory results published in US20260022142A1, “MACROCYCLIC IMMUNOMODULATORS” (Bristol-Myers Squibb Company, priority 2022, published 2026).
Numbered stars: 1 amine (or outer) side, 2 acyl side, 3 side chain; on linkers, the order of the positions; unused ones are H or OH. Bridge positions count the residues as written; N and C are the ends. Square brackets hold non-standard residues; d marks the D form. Peptide text beside a SMILES is read from it. * marks the point of attachment. ξ: configuration not given here. Phe(4-COOH) = N[C@@H](Cc1ccc(C(=O)O)cc1)C(=O)O; Bip = N[C@@H](Cc1ccc(-c2ccccc2)cc1)C(=O)O; Phe(3-Me) = Cc1cccc(C[C@H](N)C(=O)O)c1; NH(CH2)12COOH = O=C(O)CCCCCCCCCCCCN*; X4 = O=C([C@@H](N[*:1])C1CNC1)[*:2]; Val(3-OH) = CC(C)(O)[C@H](N)C(=O)O; hArg = N=C(N)NCCCC[C@H](N)C(=O)O; 4Pal = N[C@@H](Cc1ccncc1)C(=O)O; Cha = N[C@@H](CC1CCCCC1)C(=O)O; Cit = NC(=O)NCCC[C@H](N)C(=O)O; Thr(3ξ) = CC(O)[C@H](N)C(=O)O; 12Ado = NCCCCCCCCCCCC(=O)O; Carboxymethyl = O=C(O)C*; Nle = CCCC[C@H](N)C(=O)O; Orn = NCCC[C@H](N)C(=O)O; Pra = C#CC[C@H](N)C(=O)O; Aun = NCCCCCCCCCCC(=O)O; Dab = NCC[C@H](N)C(=O)O; Dap = NC[C@H](N)C(=O)O; AEEA = NCCOCCOCC(=O)O

Target: T1, PD-1/PD-L1 interaction (PE-labeled human PD-L1-Ig binding to Jurkat cell line over-expressing human PD-1) (Homo sapiens, UniProt Q15116)
T1 construct: expressed in transfected cells; host or cells: Jurkat
Test: Jurkat-PD-1 Cell Binding High-Content Screening Assay (CBA)
Format: cell-based
Conditions: Jurkat cell line over-expressing human PD-1; PE-labeled PD-L1-Ig 20 nM final; read-out: Jurkat hPD1-PDL1 IC50
Outline: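 Read-out is high-content imaging of cell-bound phycoerythrin-tagged PD-L1-Ig on fixed, Hoechst-counterstained Jurkat cells that over-express human PD-1. Compound exposure lasts 2 h at 37° C before the labeled ligand (20 nM final) is added for a further hour.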

T1 sequence (Q15116 25-288): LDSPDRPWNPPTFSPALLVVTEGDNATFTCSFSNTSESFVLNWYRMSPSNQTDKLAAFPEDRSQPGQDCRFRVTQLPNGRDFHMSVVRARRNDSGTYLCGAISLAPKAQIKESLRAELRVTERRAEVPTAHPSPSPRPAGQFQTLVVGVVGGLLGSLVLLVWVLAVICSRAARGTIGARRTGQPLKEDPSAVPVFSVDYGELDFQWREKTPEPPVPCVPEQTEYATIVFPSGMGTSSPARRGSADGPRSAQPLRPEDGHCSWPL

| IC50 | Compound |
| --- | --- |
| 38.9 nM | Cc1cccc(C[C@@H]2NC(=O)[C@H](CC(=O)O)NC(=O)[C@H](Cc3ccc(OCC(=O)O)cc3)NC(=O)[C@H](CCCCNC(=N)N)NC(=O)CSC[C@@H](C(=O)N[C@@H](CCCCN)C(=O)NCCCCCCCCCCC(=O)O)NC(=O)[C@H](C(C)O)NC(=O)[C@H](C(C)C)NC(=O)[C@H](CC3CCCCC3)NC(=O)[C@H](Cc3cnc[nH]3)NC(=O)[C@@H](CC(C)C)NC(=O)[C@H](CCCN)NC(=O)[C@H](CCC(=O)O)NC(=O)[C@H](Cc3ccc(-c4ccccc4)cc3)NC(=O)[C@H](C(C)C)NC2=O)c1 (stereo partly drawn) [Compound 3161] ({CH2CO}-[hArg]Y(Carboxymethyl)D[Phe(3-Me)]V[Bip]E[Orn][dL]H[Cha]V[Thr(3ξ)]CK[Aun]-OH; thioether N-14) |
| 18.4 nM | Cc1cccc(C[C@@H]2NC(=O)[C@H](CC(=O)O)NC(=O)[C@H](Cc3ccc(OCC(=O)O)cc3)NC(=O)[C@H](Cc3ccncc3)NC(=O)CSC[C@@H](C(=O)N[C@@H](CCN)C(=O)NCCCCCCCCCCC(=O)O)NC(=O)[C@H](CO)NC(=O)[C@H](C(C)(C)O)NC(=O)[C@H](CC3CCCCC3)NC(=O)[C@H](Cc3cnc[nH]3)NC(=O)[C@@H](CC(C)C)NC(=O)[C@H](CCCN)NC(=O)[C@H](Cc3ccc(OCC(=O)O)cc3)NC(=O)[C@H](Cc3ccc(-c4ccccc4)cc3)NC(=O)[C@H](Cc3ccc(OCC(=O)O)cc3)NC2=O)c1 [Compound 3721] ({CH2CO}-[4Pal]Y(Carboxymethyl)D[Phe(3-Me)]Y(Carboxymethyl)[Bip]Y(Carboxymethyl)[Orn][dL]H[Cha][Val(3-OH)]SC[Dab][Aun]-OH; thioether N-14) |
| 31.3 nM | Cc1cccc(C[C@@H]2NC(=O)[C@H](CC(=O)O)NC(=O)[C@H](Cc3ccc(C(=O)O)cc3)NC(=O)[C@H](Cc3ccc(OCC(=O)O)cc3)NC(=O)CSC[C@@H](C(=O)N[C@@H](CCN)C(=O)NCCCCCCCCCCC(=O)O)NC(=O)[C@H](C(C)O)NC(=O)[C@H](C(C)C)NC(=O)[C@H](CC3CCCCC3)NC(=O)[C@H](CCN)NC(=O)[C@@H](CC(C)C)NC(=O)[C@H](CCCN)NC(=O)[C@H](CCCNC(N)=O)NC(=O)[C@H](Cc3ccc(-c4ccccc4)cc3)NC(=O)[C@H](CC(C)C)NC2=O)c1 (stereo partly drawn) [Compound 3463] ({CH2CO}-Y(Carboxymethyl)[Phe(4-COOH)]D[Phe(3-Me)]L[Bip][Cit][Orn][dL][Dab][Cha]V[Thr(3ξ)]C[Dab][Aun]-OH; thioether N-14) |
| 34.1 nM | CCCC[C@@H]1NC(=O)CSC[C@@H](C(=O)N[C@@H](CCN)C(=O)NCCOCCOCC(=O)NCCCCCCCCCCCCC(=O)O)NC(=O)[C@H](CO)NC(=O)[C@H](C(C)(C)O)NC(=O)[C@H](CC2CCCCC2)NC(=O)[C@H](CCN)NC(=O)[C@@H](CC(C)C)NC(=O)[C@H](CCCN)NC(=O)[C@H](Cc2ccc(C(=O)O)cc2)NC(=O)[C@H](Cc2ccc(-c3ccccc3)cc2)NC(=O)[C@H](Cc2ccc(C(=O)O)cc2)NC(=O)[C@H](Cc2cccc(C)c2)NC(=O)[C@H](CC(=O)O)NC(=O)[C@H](Cc2ccc(OCC(=O)O)cc2)NC1=O [Compound 3841] ({CH2CO}-[Nle]Y(Carboxymethyl)D[Phe(3-Me)][Phe(4-COOH)][Bip][Phe(4-COOH)][Orn][dL][Dab][Cha][Val(3-OH)]SC[Dab][AEEA]-{NH(CH2)12COOH}; thioether N-14) |
| 16.8 nM | CC(=O)NCCCC[C@@H]1NC(=O)[C@H](Cc2ccc(-c3ccccc3)cc2)NC(=O)[C@H](C(C)C)NC(=O)[C@H](Cc2cccc(C)c2)NC(=O)[C@H](CC(=O)O)NC(=O)[C@H](Cc2ccc(OCC(=O)O)cc2)NC(=O)[C@H](CCCCNC(=N)N)NC(=O)CSC[C@@H](C(=O)N[C@@H](CCN)C(=O)NCCCCCCCCCCC(=O)O)NC(=O)[C@H](C(C)O)NC(=O)[C@H](C(C)C)NC(=O)[C@H](CC2CCCCC2)NC(=O)[C@H](CCN)NC(=O)[C@@H](CC(C)C)NC(=O)[C@H](CCCN)NC1=O (stereo partly drawn) [Compound 3580] ({CH2CO}-[hArg]Y(Carboxymethyl)D[Phe(3-Me)]V[Bip]K(Ac)[Orn][dL][Dab][Cha]V[Thr(3ξ)]C[Dab][Aun]-OH; thioether N-14) |

The next lines start with the molecule.

| Compound | IC50 |
| --- | --- |
| Cc1cccc(C[C@@H]2NC(=O)[C@H](CC(=O)O)NC(=O)[C@H](Cc3ccc(OCC(=O)O)cc3)NC(=O)[C@H](C3CNC3)NC(=O)CSC[C@@H](C(=O)N[C@@H](CCN)C(=O)NCCCCCCCCCCCCC(=O)O)NC(=O)[C@H](CO)NC(=O)[C@H](C(C)(C)O)NC(=O)[C@H](CC3CCCCC3)NC(=O)[C@H](CCN)NC(=O)[C@@H](CC(C)C)NC(=O)[C@H](CCCN)NC(=O)[C@H](Cc3ccc(OCC(=O)O)cc3)NC(=O)[C@H](Cc3ccc(-c4ccccc4)cc3)NC(=O)[C@H](Cc3ccc(OCC(=O)O)cc3)NC2=O)c1 [Compound 2256] ({CH2CO}-[X4]Y(Carboxymethyl)D[Phe(3-Me)]Y(Carboxymethyl)[Bip]Y(Carboxymethyl)[Orn][dL][Dab][Cha][Val(3-OH)]SC[Dab]-{NH(CH2)12COOH}; thioether N-14) | 13.6 nM |
| Cc1cccc(C[C@@H]2NC(=O)[C@H](CC(=O)O)NC(=O)[C@H](Cc3ccc(OCC(=O)O)cc3)NC(=O)[C@H](CN)NC(=O)CSC[C@@H](C(=O)N[C@H](CO)C(=O)N[C@@H](CCC(=O)O)C(=O)NCCCCCCCCCCC(=O)O)NC(=O)[C@H]([C@@H](C)O)NC(=O)[C@H](C(C)C)NC(=O)[C@H](CC3CCCCC3)NC(=O)[C@H](CCN)NC(=O)[C@@H](CC(C)C)NC(=O)[C@H](CCCN)NC(=O)[C@H](CCCNC(N)=O)NC(=O)[C@H](Cc3ccc(-c4ccccc4)cc3)NC(=O)[C@H](C(C)C)NC2=O)c1 [Compound 2807] ({CH2CO}-[Dap]Y(Carboxymethyl)D[Phe(3-Me)]V[Bip][Cit][Orn][dL][Dab][Cha]VTC[dS]E[Aun]-OH; thioether N-14) | 16.5 nM |
| CC(C)C[C@H]1NC(=O)[C@H](CCCN)NC(=O)[C@H](C(C)C)NC(=O)[C@H](Cc2ccc(-c3ccccc3)cc2)NC(=O)[C@H](C(C)C)NC(=O)[C@H](Cc2c[nH]c3ccccc23)NC(=O)[C@H](CC(=O)O)NC(=O)[C@H](Cc2ccc(OCC(=O)O)cc2)NC(=O)[C@H](CCCCNC(=N)N)NC(=O)CSC[C@@H](C(=O)NCC(=O)NCCOCCOCC(=O)N[C@@H](CCCN)C(=O)NCCCCCCCCCCCC(=O)O)NC(=O)[C@H](CO)NC(=O)[C@H](C(C)C)NC(=O)[C@H](CC2CCCCC2)NC(=O)[C@H](CCN)NC1=O [Compound 3036] ({CH2CO}-[hArg]Y(Carboxymethyl)DWV[Bip]V[Orn][dL][Dab][Cha]VSCG[AEEA][Orn][12Ado]-OH; thioether N-14) | 4.9 nM |
| Cc1cccc(C[C@@H]2NC(=O)[C@H](CC(=O)O)NC(=O)[C@H](Cc3ccc(OCC(=O)O)cc3)NC(=O)[C@H](CN)NC(=O)CSC[C@@H](C(=O)N[C@@H](CCN)C(=O)NCCOCCOCC(=O)NCCCCCCCCCCC(=O)O)NC(=O)[C@H](CCCN)NC(=O)[C@H](C(C)C)NC(=O)[C@H](CC3CCCCC3)NC(=O)[C@H](CCN)NC(=O)[C@@H](CC(C)C)NC(=O)[C@H](CCCN)NC(=O)[C@H](Cc3ccc(O)cc3)NC(=O)[C@H](Cc3ccc(-c4ccccc4)cc3)NC(=O)[C@H](Cc3ccncc3)NC2=O)c1 [Compound 2073] ({CH2CO}-[Dap]Y(Carboxymethyl)D[Phe(3-Me)][4Pal][Bip]Y[Orn][dL][Dab][Cha]V[Orn]C[Dab][AEEA][Aun]-OH; thioether N-14) | 8.9 nM |
| C#CC[C@H](NC(=O)COCCOCCNC(=O)[C@@H]1CSCC(=O)N[C@@H](Cc2ccncc2)C(=O)N[C@@H](Cc2ccc(OCC(=O)O)cc2)C(=O)N[C@@H](CC(=O)O)C(=O)N[C@@H](Cc2c[nH]c3ccccc23)C(=O)N[C@@H](C(C)C)C(=O)N[C@@H](Cc2ccc(-c3ccccc3)cc2)C(=O)N[C@@H]([C@@H](C)CC)C(=O)N[C@@H](CCCN)C(=O)N[C@H](CC(C)C)C(=O)N[C@@H](CCN)C(=O)N[C@@H](CC(C)C)C(=O)N[C@@H](C(C)C)C(=O)N[C@@H]([C@@H](C)O)C(=O)N1)C(=O)N[C@@H](CCCCN)C(=O)NCCCCCCCCCCC(=O)O [Compound 1214] ({CH2CO}-[4Pal]Y(Carboxymethyl)DWV[Bip]I[Orn][dL][Dab]LVTC[AEEA][Pra]K[Aun]-OH; thioether N-14) | 13.7 nM |
| Cc1cccc(C[C@@H]2NC(=O)[C@H](CC(=O)O)NC(=O)[C@H](Cc3ccc(OCC(=O)O)cc3)NC(=O)[C@H](CN)NC(=O)CSC[C@@H](C(=O)N[C@@H](CCN)C(=O)NCCCCCCCCCCC(=O)O)NC(=O)[C@H](CCCNC(=N)N)NC(=O)[C@H](C(C)C)NC(=O)[C@H](CC3CCCCC3)NC(=O)[C@H](CCN)NC(=O)[C@@H](CC(C)C)NC(=O)[C@H](CCCN)NC(=O)[C@H](C(C)C)NC(=O)[C@H](Cc3ccc(-c4ccccc4)cc3)NC(=O)[C@H](C(C)C)NC2=O)c1 [Compound 2560] ({CH2CO}-[Dap]Y(Carboxymethyl)D[Phe(3-Me)]V[Bip]V[Orn][dL][Dab][Cha]VRC[Dab][Aun]-OH; thioether N-14) | 17 nM |
| CC[C@H](C)[C@@H]1NC(=O)[C@H](Cc2ccc(-c3ccccc3)cc2)NC(=O)[C@H](C(C)C)NC(=O)[C@H](Cc2c[nH]c3ccccc23)NC(=O)[C@H](CC(=O)O)NC(=O)[C@H](Cc2ccc(OCC(=O)O)cc2)NC(=O)[C@H](Cc2ccncc2)NC(=O)CSC[C@@H](C(=O)N[C@@H](CCCN)C(=O)NCCOCCOCC(=O)NCCCCCCCCCCC(=O)O)NC(=O)[C@H]([C@@H](C)O)NC(=O)[C@H](C(C)C)NC(=O)[C@H](CC(C)C)NC(=O)[C@H](CCN)NC(=O)[C@@H](CC(C)C)NC(=O)[C@H](CCCN)NC1=O [Compound 1159] ({CH2CO}-[4Pal]Y(Carboxymethyl)DWV[Bip]I[Orn][dL][Dab]LVTC[Orn][AEEA][Aun]-OH; thioether N-14) | 33.4 nM |
| Cc1cccc(C[C@@H]2NC(=O)[C@H](CC(=O)O)NC(=O)[C@H](Cc3ccc(OCC(=O)O)cc3)NC(=O)[C@H](CN)NC(=O)CSC[C@@H](C(=O)N[C@@H](CCN)C(=O)NCCCCCCCCCCC(=O)O)NC(=O)[C@@H]([C@H](C)O)NC(=O)[C@H](C(C)C)NC(=O)[C@H](CC3CCCCC3)NC(=O)[C@H](CCN)NC(=O)[C@@H](CC(C)C)NC(=O)[C@H](CCCN)NC(=O)[C@H](Cc3ccc(O)cc3)NC(=O)[C@H](Cc3ccc(-c4ccccc4)cc3)NC(=O)[C@H](Cc3ccc(O)cc3)NC2=O)c1 [Compound 2716] ({CH2CO}-[Dap]Y(Carboxymethyl)D[Phe(3-Me)]Y[Bip]Y[Orn][dL][Dab][Cha]V[dT]C[Dab][Aun]-OH; thioether N-14) | 24.3 nM |
